From ChEMBL document CHEMBL5126576, “From tryptophan to novel mitochondria-disruptive agent, synthesis and biological evaluation of 1,2,3,6-tetrasubstituted carbazoles” (Eur J Med Chem, 2022)
pIC50: −log10 of the molar value. Calls of active or inactive are those of the source. No cut-off for these calls is given here.

Tests used:
[1] = system: A549; experiment: Antiproliferative activity against human A549 cells after 72 hrs by MTT assay; format: functional, cell-based; conditions: A549, 72 h
[2] = Antiproliferative activity against human HEK293 cells after 72 hrs by MTT assay; format: toxicity, cell-based
[3] = system: HepG2; experiment: Antiproliferative activity against human HepG2 cells after 72 hrs by MTT assay; format: functional, cell-based; conditions: HepG2, 72 h
[4] = system: U2OS; experiment: Antiproliferative activity against human U2OS cells after 72 hrs by MTT assay; format: functional, cell-based
[5] = system: MCF7; experiment: Antiproliferative activity against human MCF7 cells after 72 hrs by MTT assay; format: functional, cell-based; conditions: MCF7, 72 h
[6] = system: HCT-116; experiment: Antiproliferative activity against human HCT-116 cells after 72 hrs by MTT assay; format: functional, cell-based; conditions: HCT-116, 72 h
[7] = system: U2OS; experiment: Induction of mitochondrial morphological changes in human U2OS cells assessed as short circular-shaped mitochondria measured after 6 hrs by confocal microscopic analysis; format: functional, cell-based
[8] = system: HCT-116; experiment: Induction of apoptosis in human HCT-116 cells assessed as early apoptotic cells at IC50 measured after 6 hrs by Annexin-V-FITC/propidium iodide staining based flow cytometry; format: functional
[9] = system: A549; experiment: Induction of cell cycle arrest in human A549 cells assessed as increase in number of cells at S phase at IC50 measured after 72 hrs by flow cytometry; format: functional, cell-based
[10] = system: A549; experiment: Induction of cell cycle arrest in human A549 cells assessed as slight increase in G0/G1 phase at IC50 measured after 24 hrs by flow cytometry; format: functional, cell-based
[11] = system: HCT-116; experiment: Induction of reactive oxygen species generation in human HCT116 cells at 15 uM after 24 hrs by DCFH-DA staining based assay relative to control; format: functional
[12] = system: HCT-116; experiment: Inhibition of cell migration in human HCT-116 cells at 5 to 10 uM measured after 24 hrs by wound healing assay; format: functional, cell-based; conditions: dose 5-10 µM
[13] = system: HCT-116; experiment: Induction of cell cycle arrest in human HCT-116 cells assessed as increase in number of cells at S phase at IC50 measured after 72 hrs by flow cytometry; format: functional, cell-based
[14] = system: U2OS; experiment: Induction of cell cycle arrest in human U2OS cells assessed as increase in G2/M phase at IC50 measured after 24 hrs by flow cytometry; format: functional, cell-based
[15] = system: U2OS; experiment: Induction of reactive oxygen species generation in human U2OS cells by DCFH-DA staining based assay; format: functional, cell-based; conditions: time 1-24 hrs
[16] = system: HCT-116; experiment: Induction of cell cycle arrest in human HCT-116 cells assessed as increase in G2/M phase at IC50 measured after 24 hrs by flow cytometry; format: functional, cell-based
[17] = system: U2OS; experiment: Induction of DNA damage in human U2OS cells assessed as increase in H2AX phosphorylation measured after 72 hrs by immunofluorescence analysis relative to control; format: functional
[18] = system: U2OS; experiment: Induction of DNA damage in human U2OS cells assessed as increase in H2AX phosphorylation measured after 48 hrs by immunofluorescence analysis relative to control; format: functional
[19] = system: HCT-116; experiment: Induction of apoptosis in human HCT-116 cells assessed as necrotic cells at IC50 measured after 48 hrs by Annexin-V-FITC/propidium iodide staining based flow cytometry relative to control; format: functional
[20] = system: HCT-116; experiment: Induction of cell senescence in human HCT-116 cells assessed by increase SA-beta-Gal activity measured after 24 to 48 hrs by microscopic analysis; format: functional, cell-based; conditions: time 24-48 hrs
[21] = system: U2OS; experiment: Induction of mitochondrial membrane potential loss in human U2OS cells assessed as green fluorescence intensity by JC1 staining-based flow cytometry analysis; format: functional, cell-based
[22] = system: HCT-116; experiment: Induction of apoptosis in human HCT-116 cells assessed as increase in caspase 3/7 activity at IC50 measured after 6 to 48 hrs by […] based flow cytometry; format: functional, cell-based; conditions: time 6-48 hrs
[23] = system: HCT-116; experiment: Induction of apoptosis in human HCT-116 cells assessed as early and late apoptotic cells at IC50 measured after 24 hrs by Annexin-V-FITC/propidium iodide staining based flow cytometry; format: functional, cell-based
[24] = system: U2OS; experiment: Inhibition of cell migration in human U2OS cells at 5 to 10 uM measured after 24 to 48 hrs by wound healing assay; format: functional, cell-based; conditions: dose 5-10 µM, time 24-48 hrs
[25] = system: U2OS; experiment: Induction of cell cycle arrest in human U2OS cells assessed as slight increase in G0/G1 phase at IC50 measured after 24 hrs by flow cytometry; format: functional, cell-based
[26] = system: HCT-116; experiment: Induction of mitochondrial membrane potential loss in human HCT116 cells assessed as green fluorescence intensity by JC1 staining-based flow cytometry analysis; format: functional, cell-based
[27] = system: U2OS; experiment: Inhibition of colony formation in human U2OS cells at 0.5 to 10 uM measured after 24 hrs crystal violet staining based assay; format: functional, cell-based; conditions: dose 0.5-10 µM
[28] = system: U2OS; experiment: Induction of cell cycle arrest in human U2OS cells assessed as moderate increase in S phase at IC50 measured after 24 hrs by flow cytometry; format: functional, cell-based
[29] = system: HCT-116; experiment: Inhibition of cell migration in human HCT-116 cells at 10 uM measured after 60 hrs by wound healing assay relative to control; format: functional
[30] = system: HCT-116; experiment: Induction of mitochondrial morphological changes in human HCT-116 cells assessed as short circular-shaped mitochondria measured after 6 hrs by confocal microscopic analysis; format: functional, cell-based
[31] = system: HCT-116; experiment: Induction of cell cycle arrest in human HCT-116 cells assessed as slight increase in G0/G1 phase at IC50 measured after 24 hrs by flow cytometry; format: functional, cell-based
[32] = system: HCT-116; experiment: Induction of mitochondrial morphological changes in human HCT-116 cells assessed as reduction in mitochondrial length measured after 6 hrs by confocal microscopic analysis relative to control; format: functional; set-up: scale not given: the % may be the effect or the level left
[33] = system: HCT-116; experiment: Inhibition of colony formation in human HCT-116 cells at 0.5 to 10 uM measured after 24 hrs crystal violet staining based assay; format: functional, cell-based; conditions: dose 0.5-10 µM
[34] = Drug uptake in human HCT-116 cells assessed as accumulation in lipid droplets at IC50 measured after 2 hr by immunofluorescence analysis; format: ADME, cell-based; conditions: hct-116, 2 h
[35] = system: HCT-116; experiment: Induction of DNA damage in human HCT-116 cells assessed as increase in H2AX phosphorylation measured after 24 to 72 hrs by immunofluorescence analysis; format: functional, cell-based; conditions: time 24-72 hrs
[36] = system: HCT-116; experiment: Induction of cell cycle arrest in human HCT-116 cells assessed as moderate increase in S phase at IC50 measured after 24 hrs by flow cytometry; format: functional, cell-based
[37] = system: A549; experiment: Induction of cell cycle arrest in human A549 cells assessed as increase in G2/M phase at IC50 measured after 24 hrs by flow cytometry; format: functional, cell-based
[38] = system: A549; experiment: Induction of cell cycle arrest in human A549 cells assessed as moderate increase in S phase at IC50 measured after 24 hrs by flow cytometry; format: functional, cell-based
[39] = system: A549; experiment: Induction of cell cycle arrest in human A549 cells assessed as increase in number of cells at G2/M phase at IC50 measured after 24 to 48 hrs by flow cytometry; format: functional, cell-based; conditions: time 24-48 hrs

O=c1[nH]cc(F)c(=O)[nH]1 [FLUOROURACIL]
pIC50 [1]: 5.09 | IC50 at 72 h [2]: 41 µM | pIC50 [3]: 4.72 | pIC50 [4]: 4.89 | pIC50 [5]: 5.08 | pIC50 [6]: 5.24

CCOC(=O)c1c(OC(=O)c2ccc(C)o2)c(NC(=O)c2ccc(C)o2)cc2c1[nH]c1ccc(NC(=O)c3ccc(C)o3)cc12
pIC50 [1]: < 4.30 | IC50 at 72 h [2]: > 50 µM | pIC50 [3]: < 4.30 | pIC50 [4]: < 4.30 | pIC50 [5]: < 4.30 | pIC50 [6]: < 4.30

CCOC(=O)c1c(O)c(NC(=O)c2ccc(C)o2)cc2c1[nH]c1ccccc12
pIC50 [1]: < 4.30 | IC50 at 72 h [2]: > 50 µM | pIC50 [3]: < 4.30 | pIC50 [4]: < 4.30 | pIC50 [5]: < 4.30 | pIC50 [6]: < 4.30

CCOC(=O)c1c(O)c(NC(=O)c2ccc(CC)o2)cc2c1[nH]c1ccccc12
pIC50 [1]: < 4.30 | IC50 at 72 h [2]: > 50 µM | pIC50 [3]: < 4.30 | pIC50 [4]: < 4.30 | pIC50 [5]: < 4.30 | pIC50 [6]: < 4.30

CCOC(=O)c1c(O)c(NC(=O)OC(C)(C)C)cc2c1[nH]c1ccc(NC(=O)OC(C)(C)C)cc12
pIC50 [1]: < 4.30 | IC50 at 72 h [2]: > 50 µM | pIC50 [3]: < 4.30 | pIC50 [4]: < 4.30 | pIC50 [5]: < 4.30 | pIC50 [6]: < 4.30

CCOC(=O)CC(=O)C(Cc1c[nH]c2ccccc12)NC(=O)OC(C)(C)C (configuration not stated)
pIC50 [1]: < 4.30 | IC50 at 72 h [2]: > 50 µM | pIC50 [3]: < 4.30 | pIC50 [4]: < 4.30 | pIC50 [5]: < 4.30 | pIC50 [6]: < 4.30

CC(C)(C)OC(=O)Nc1cc2c([nH]c3ccccc32)c(C(=O)O)c1O
pIC50 [1]: 4.94 | Activity [7]: Active | Activity [8]: 11.23% | Activity [9]: Active | Activity [10]: Active | Activity [11]: 64.2% | inhibition [12]: Active | Activity [13]: Active | Activity [14]: Active | Activity [15]: Active | Activity [16]: Active | Activity [17]: 68.2% | IC50 at 72 h [2]: > 50 µM | pIC50 [3]: < 4.30 | Activity [18]: 51% | Activity [19]: 2.38% | Activity [20]: Active | Activity [21]: Active | pIC50 [4]: 5.63 | Activity [22]: Active | Activity [23]: Active | inhibition [24]: Active | pIC50 [5]: < 4.30 | Activity [25]: Active | Activity [26]: Active | pIC50 [6]: 5.43 | inhibition [27]: Active | Activity [28]: Active | inhibition at 10 µM [29]: 64.4% | Activity [30]: Active | Activity [31]: Active | Activity [32]: 36.71% | inhibition [33]: Active | Drug uptake [34]: Active | Activity [35]: Active | Activity [36]: Active | Activity [37]: Active | Activity [38]: Active | Activity [39]: Active

CCOC(=O)Nc1cc2c([nH]c3ccccc32)c(C(=O)OCC)c1O
pIC50 [1]: 4.77 | IC50 at 72 h [2]: > 50 µM | pIC50 [3]: < 4.30 | pIC50 [4]: < 4.30 | pIC50 [5]: < 4.30 | pIC50 [6]: < 4.30

CCOC(=O)c1c(O)c(NC(C)=O)cc2c1[nH]c1ccccc12
pIC50 [1]: < 4.30 | IC50 at 72 h [2]: > 50 µM | pIC50 [3]: < 4.30 | pIC50 [4]: < 4.30 | pIC50 [5]: < 4.30 | pIC50 [6]: < 4.30

CCOC(=O)c1c(O)c(NC(=O)OC(C)(C)C)cc2c1[nH]c1ccccc12
pIC50 [1]: < 4.30 | Activity [7]: Active | Activity [11]: 19.6% | inhibition [12]: Active | Activity [15]: Active | IC50 at 72 h [2]: > 50 µM | pIC50 [3]: < 4.30 | Activity [19]: 1.16% | Activity [20]: Active | Activity [21]: Active | pIC50 [4]: 4.81 | Activity [22]: Active | Activity [23]: Active | inhibition [24]: Active | pIC50 [5]: < 4.30 | Activity [26]: Active | pIC50 [6]: 4.97 | inhibition [27]: Active | inhibition at 10 µM [29]: 57% | Activity [30]: Active | Activity [32]: 50.34% | inhibition [33]: Active | Drug uptake [34]: Active | Activity [35]: Active

CCOC(=O)c1c(O)c(NC(=O)OC(C)(C)C)cc2c1[nH]c1ccc(OC(C)=O)cc12
pIC50 [1]: < 4.30 | IC50 at 72 h [2]: > 50 µM | pIC50 [3]: < 4.30 | pIC50 [4]: 4.43 | pIC50 [5]: < 4.30 | pIC50 [6]: 4.33
